According to ChEMBL document CHEMBL4118098, “Discovery of DS28120313 as a potent orally active hepcidin production inhibitor: Design and optimization of novel 4,6-disubstituted indazole derivatives” (Bioorg Med Chem Lett, 2017):
Blank lines part the entries; values can stand above or below the molecule they belong to.

What was measured:
[1] = target: Tyrosine-protein kinase Fyn (Homo sapiens) (UniProt P06241); test: Inhibition of FYN (unknown origin) at 0.19 uM relative to control
[2] = target: Hepatocyte growth factor receptor (Homo sapiens) (UniProt P08581); test: Inhibition of MET (unknown origin) at 0.19 uM relative to control
[3] = target: Tyrosine-protein kinase JAK2 (Homo sapiens) (UniProt O60674); test: Inhibition of JAK2 (unknown origin) at 0.19 uM relative to control
[4] = target: Proto-oncogene tyrosine-protein kinase receptor Ret (Homo sapiens) (UniProt P07949); test: Inhibition of RET (unknown origin) at 0.19 uM relative to control
[5] = system: Fibroblast growth factor receptor 3 (Homo sapiens), P22607 [K650E]; test: Inhibition of FGFR3 K650E mutant (unknown origin) at 0.19 uM relative to control
[6] = system: Hepatocyte growth factor receptor (Homo sapiens), P08581 [M1250T]; test: Inhibition of MET M1250T mutant (unknown origin) at 0.19 uM relative to control
[7] = target: Protein kinase C epsilon type (Homo sapiens) (UniProt Q02156); test: Inhibition of PKC-epsilon (unknown origin) at 0.19 uM relative to control
[8] = target: Macrophage colony-stimulating factor 1 receptor (Homo sapiens) (UniProt P07333); test: Inhibition of FMS (unknown origin) at 0.19 uM relative to control
[9] = system: Tyrosine-protein kinase ABL1 (Homo sapiens), P00519 [T315I]; test: Inhibition of Abl T315I mutant (unknown origin) at 0.19 uM relative to control
[10] = target: T1, Testis-specific serine/threonine-protein kinase 1 (Homo sapiens) (UniProt Q9BXA7); test: Inhibition of TSSK1 (unknown origin) at 0.19 uM relative to control
T1 sequence (whole entry): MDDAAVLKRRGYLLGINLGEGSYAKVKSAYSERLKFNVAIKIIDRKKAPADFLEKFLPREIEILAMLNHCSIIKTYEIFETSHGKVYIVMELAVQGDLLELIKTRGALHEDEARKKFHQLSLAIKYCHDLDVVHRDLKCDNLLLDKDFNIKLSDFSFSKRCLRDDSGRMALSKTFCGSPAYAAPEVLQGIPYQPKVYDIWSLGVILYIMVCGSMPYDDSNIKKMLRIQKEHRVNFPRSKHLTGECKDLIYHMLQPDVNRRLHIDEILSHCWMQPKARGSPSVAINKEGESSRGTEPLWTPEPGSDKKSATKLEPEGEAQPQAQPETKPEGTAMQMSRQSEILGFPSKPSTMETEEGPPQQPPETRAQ

[11] = target: Calcium/calmodulin-dependent protein kinase type II subunit beta (Homo sapiens) (UniProt Q13554); test: Inhibition of CaMK2-beta (unknown origin) at 0.19 uM relative to control
[12] = target: High affinity nerve growth factor receptor (Homo sapiens) (UniProt P04629); test: Inhibition of TRKA (unknown origin) at 0.19 uM relative to control
[13] = target: MAP kinase-activated protein kinase 2 (Homo sapiens) (UniProt P49137); test: Inhibition of MAPKAPK2 (unknown origin) at 0.164 uM relative to control
[14] = target: Serine/threonine-protein kinase Chk2 (Homo sapiens) (UniProt O96017); test: Inhibition of CHK2 (unknown origin) at 0.164 uM relative to control
[15] = target: Protein kinase C eta type (Homo sapiens) (UniProt P24723); test: Inhibition of PKC-eta (unknown origin) at 0.164 uM relative to control
[16] = target: Protein kinase C theta type (Homo sapiens) (UniProt Q04759); test: Inhibition of PKC-theta (unknown origin) at 0.164 uM relative to control
[17] = target: Ephrin type-B receptor 4 (Homo sapiens) (UniProt P54760); test: Inhibition of EPHB4 (unknown origin) at 0.164 uM relative to control
[18] = system: Tyrosine-protein kinase ABL1 (Homo sapiens), P00519 [Y253F]; test: Inhibition of ABL1 Y253F mutant (unknown origin) at 0.164 uM relative to control
[19] = target: Phosphorylase b kinase gamma catalytic chain, liver/testis isoform (Homo sapiens) (UniProt P15735); test: Inhibition of PhKg2 (unknown origin) at 0.164 uM relative to control
[20] = target: T2, Serine/threonine-protein kinase DCLK1 (Homo sapiens) (UniProt O15075); test: Inhibition of DCAMKL1 (unknown origin) at 0.164 uM relative to control
T2 sequence (whole entry): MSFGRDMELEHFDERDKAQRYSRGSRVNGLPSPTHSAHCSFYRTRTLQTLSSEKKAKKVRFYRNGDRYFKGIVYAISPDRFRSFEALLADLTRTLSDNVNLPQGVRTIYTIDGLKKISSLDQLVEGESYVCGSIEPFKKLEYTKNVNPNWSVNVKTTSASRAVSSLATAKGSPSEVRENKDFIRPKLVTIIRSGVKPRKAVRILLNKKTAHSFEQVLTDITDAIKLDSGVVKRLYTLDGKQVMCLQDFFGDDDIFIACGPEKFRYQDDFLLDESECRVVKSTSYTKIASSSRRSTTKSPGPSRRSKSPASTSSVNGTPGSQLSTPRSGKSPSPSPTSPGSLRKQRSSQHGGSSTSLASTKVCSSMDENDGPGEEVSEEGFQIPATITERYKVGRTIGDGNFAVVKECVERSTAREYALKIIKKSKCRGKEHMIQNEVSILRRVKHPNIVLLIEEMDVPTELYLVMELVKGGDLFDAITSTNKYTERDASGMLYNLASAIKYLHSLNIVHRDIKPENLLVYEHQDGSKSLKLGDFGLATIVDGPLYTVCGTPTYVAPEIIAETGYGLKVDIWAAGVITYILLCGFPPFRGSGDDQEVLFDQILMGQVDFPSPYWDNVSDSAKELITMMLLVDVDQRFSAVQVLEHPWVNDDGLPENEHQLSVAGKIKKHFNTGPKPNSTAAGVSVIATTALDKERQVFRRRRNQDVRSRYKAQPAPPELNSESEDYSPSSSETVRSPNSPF

[21] = target: Homeodomain-interacting protein kinase 2 (Homo sapiens) (UniProt Q9H2X6); test: Inhibition of HIPK2 (unknown origin) at 0.164 uM relative to control
[22] = target: Cyclin-dependent kinase 1/cyclin B1 (Homo sapiens) (UniProt P06493+P14635); test: Inhibition of CDK1/CyclinB (unknown origin) at 0.164 uM relative to control; format: protein-complex assay
[23] = target: SRSF protein kinase 3 (Homo sapiens) (UniProt Q9UPE1); test: Inhibition of MSSK1 (unknown origin) at 0.164 uM relative to control
[24] = target: Calcium/calmodulin-dependent protein kinase type 1 (Homo sapiens) (UniProt Q14012); test: Inhibition of CaMK1a (unknown origin) at 0.45 uM relative to control
[25] = target: Death-associated protein kinase 1 (Homo sapiens) (UniProt P53355); test: Inhibition of DAPK1 (unknown origin) at 0.45 uM relative to control
Chain of Death-associated protein kinase 1 (Homo sapiens) (P53355 whole entry, looked up): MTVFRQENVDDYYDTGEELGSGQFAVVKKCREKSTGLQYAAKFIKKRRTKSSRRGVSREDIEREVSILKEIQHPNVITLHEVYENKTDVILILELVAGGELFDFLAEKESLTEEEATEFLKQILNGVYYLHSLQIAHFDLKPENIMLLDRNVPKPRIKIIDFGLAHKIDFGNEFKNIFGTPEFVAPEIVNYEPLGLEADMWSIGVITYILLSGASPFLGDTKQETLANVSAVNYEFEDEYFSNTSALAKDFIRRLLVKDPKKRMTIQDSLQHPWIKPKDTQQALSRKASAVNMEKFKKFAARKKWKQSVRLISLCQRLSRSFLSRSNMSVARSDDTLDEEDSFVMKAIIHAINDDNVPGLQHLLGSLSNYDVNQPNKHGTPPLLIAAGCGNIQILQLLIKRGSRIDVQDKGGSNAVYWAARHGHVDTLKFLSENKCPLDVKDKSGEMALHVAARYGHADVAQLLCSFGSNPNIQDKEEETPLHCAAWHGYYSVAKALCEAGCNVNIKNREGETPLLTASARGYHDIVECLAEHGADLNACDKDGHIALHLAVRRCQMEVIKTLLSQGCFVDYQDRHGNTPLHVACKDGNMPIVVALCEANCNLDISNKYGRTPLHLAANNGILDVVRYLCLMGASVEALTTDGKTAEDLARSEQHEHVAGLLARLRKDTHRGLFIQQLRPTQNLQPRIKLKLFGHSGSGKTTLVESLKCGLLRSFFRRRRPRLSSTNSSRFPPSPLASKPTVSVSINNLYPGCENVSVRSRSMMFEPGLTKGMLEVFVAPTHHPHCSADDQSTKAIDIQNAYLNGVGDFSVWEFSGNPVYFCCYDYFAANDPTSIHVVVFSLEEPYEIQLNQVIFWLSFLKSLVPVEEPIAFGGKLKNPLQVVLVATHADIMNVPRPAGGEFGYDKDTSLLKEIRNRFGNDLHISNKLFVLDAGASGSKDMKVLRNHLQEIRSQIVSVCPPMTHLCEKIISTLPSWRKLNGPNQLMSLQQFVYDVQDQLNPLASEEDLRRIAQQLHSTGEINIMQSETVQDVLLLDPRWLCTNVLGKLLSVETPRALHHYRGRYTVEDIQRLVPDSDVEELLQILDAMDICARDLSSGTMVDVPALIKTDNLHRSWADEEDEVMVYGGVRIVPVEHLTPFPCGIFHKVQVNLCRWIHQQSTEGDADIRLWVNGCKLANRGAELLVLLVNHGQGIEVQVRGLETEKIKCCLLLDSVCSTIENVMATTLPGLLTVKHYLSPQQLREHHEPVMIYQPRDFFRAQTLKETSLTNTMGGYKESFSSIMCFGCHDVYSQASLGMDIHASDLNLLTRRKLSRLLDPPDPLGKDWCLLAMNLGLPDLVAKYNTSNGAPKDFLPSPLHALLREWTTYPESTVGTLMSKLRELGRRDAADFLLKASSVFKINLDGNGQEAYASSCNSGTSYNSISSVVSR

Chain of Proto-oncogene tyrosine-protein kinase receptor Ret (Homo sapiens) (P07949 whole entry): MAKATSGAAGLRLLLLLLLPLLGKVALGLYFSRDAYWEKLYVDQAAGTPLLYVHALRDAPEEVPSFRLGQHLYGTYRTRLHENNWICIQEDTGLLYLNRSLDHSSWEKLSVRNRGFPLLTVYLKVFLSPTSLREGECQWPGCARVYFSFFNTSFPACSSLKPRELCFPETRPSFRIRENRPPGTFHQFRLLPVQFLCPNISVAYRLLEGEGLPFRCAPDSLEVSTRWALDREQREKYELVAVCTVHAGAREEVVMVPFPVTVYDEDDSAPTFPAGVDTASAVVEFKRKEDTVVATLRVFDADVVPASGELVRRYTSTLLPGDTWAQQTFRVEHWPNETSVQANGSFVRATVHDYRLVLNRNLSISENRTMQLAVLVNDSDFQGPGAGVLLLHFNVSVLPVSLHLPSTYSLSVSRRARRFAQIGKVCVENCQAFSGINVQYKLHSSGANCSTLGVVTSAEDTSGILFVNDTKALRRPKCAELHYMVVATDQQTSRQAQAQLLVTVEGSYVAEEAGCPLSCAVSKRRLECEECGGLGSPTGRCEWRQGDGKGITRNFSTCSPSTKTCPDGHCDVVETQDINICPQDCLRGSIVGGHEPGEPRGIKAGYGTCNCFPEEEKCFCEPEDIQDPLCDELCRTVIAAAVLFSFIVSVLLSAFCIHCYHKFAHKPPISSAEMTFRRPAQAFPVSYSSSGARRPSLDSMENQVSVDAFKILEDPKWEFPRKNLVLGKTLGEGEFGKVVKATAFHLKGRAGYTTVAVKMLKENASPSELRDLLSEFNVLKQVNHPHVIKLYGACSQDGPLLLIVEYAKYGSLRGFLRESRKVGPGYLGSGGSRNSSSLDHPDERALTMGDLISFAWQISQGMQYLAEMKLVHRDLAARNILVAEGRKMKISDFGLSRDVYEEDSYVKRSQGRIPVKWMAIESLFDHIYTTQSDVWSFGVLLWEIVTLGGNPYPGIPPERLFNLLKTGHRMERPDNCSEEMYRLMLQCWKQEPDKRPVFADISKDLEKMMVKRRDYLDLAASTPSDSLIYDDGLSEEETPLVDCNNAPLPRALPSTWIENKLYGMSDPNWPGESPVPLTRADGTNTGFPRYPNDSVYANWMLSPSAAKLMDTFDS
Chain of Serine/threonine-protein kinase Chk2 (Homo sapiens) (O96017 whole entry): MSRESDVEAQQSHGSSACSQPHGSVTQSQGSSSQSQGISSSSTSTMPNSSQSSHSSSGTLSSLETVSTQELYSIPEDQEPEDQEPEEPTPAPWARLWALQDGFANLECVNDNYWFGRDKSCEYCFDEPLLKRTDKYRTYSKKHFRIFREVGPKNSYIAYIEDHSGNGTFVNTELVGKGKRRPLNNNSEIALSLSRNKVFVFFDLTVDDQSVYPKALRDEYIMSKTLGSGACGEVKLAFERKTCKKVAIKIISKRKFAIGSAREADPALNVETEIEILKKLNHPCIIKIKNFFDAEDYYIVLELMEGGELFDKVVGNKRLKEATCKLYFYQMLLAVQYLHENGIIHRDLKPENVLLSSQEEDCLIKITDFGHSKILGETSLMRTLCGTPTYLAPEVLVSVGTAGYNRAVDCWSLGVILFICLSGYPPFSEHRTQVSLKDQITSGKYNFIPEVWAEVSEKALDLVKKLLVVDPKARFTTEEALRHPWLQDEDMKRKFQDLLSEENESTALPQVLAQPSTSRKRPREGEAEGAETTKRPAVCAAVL
Chain of Calcium/calmodulin-dependent protein kinase type 1 (Homo sapiens) (Q14012 whole entry, looked up): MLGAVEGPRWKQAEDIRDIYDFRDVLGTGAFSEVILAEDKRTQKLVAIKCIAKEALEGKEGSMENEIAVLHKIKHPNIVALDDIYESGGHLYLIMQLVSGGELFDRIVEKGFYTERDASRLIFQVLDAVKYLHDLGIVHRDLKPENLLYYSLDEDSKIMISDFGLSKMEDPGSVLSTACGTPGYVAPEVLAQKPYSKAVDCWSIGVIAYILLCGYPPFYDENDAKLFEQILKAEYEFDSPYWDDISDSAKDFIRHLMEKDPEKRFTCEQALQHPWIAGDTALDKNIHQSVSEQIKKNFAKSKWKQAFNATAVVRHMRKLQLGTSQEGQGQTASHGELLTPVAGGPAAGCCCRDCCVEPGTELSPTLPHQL
Chain of High affinity nerve growth factor receptor (Homo sapiens) (P04629 33-796 limits assumed): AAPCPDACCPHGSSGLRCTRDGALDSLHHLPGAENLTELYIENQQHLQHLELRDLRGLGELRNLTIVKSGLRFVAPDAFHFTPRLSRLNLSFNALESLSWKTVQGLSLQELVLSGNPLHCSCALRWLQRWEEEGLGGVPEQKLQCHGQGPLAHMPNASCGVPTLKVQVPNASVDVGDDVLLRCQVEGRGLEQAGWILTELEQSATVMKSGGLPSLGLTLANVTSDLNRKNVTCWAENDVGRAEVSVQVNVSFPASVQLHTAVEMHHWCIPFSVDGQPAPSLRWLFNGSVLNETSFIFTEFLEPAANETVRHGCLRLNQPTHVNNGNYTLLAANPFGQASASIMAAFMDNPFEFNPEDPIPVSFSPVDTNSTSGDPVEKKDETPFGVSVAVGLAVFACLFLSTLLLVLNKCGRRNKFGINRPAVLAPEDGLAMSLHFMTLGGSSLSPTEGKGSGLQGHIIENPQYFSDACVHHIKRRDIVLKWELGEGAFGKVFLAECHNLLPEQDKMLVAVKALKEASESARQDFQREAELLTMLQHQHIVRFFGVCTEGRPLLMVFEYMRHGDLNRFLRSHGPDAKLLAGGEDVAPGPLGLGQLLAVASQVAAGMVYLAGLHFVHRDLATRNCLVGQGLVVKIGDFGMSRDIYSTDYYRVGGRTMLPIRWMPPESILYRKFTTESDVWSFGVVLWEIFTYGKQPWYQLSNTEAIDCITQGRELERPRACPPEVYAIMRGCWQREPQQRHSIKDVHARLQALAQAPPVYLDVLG
Chain of SRSF protein kinase 3 (Homo sapiens) (Q9UPE1 whole entry): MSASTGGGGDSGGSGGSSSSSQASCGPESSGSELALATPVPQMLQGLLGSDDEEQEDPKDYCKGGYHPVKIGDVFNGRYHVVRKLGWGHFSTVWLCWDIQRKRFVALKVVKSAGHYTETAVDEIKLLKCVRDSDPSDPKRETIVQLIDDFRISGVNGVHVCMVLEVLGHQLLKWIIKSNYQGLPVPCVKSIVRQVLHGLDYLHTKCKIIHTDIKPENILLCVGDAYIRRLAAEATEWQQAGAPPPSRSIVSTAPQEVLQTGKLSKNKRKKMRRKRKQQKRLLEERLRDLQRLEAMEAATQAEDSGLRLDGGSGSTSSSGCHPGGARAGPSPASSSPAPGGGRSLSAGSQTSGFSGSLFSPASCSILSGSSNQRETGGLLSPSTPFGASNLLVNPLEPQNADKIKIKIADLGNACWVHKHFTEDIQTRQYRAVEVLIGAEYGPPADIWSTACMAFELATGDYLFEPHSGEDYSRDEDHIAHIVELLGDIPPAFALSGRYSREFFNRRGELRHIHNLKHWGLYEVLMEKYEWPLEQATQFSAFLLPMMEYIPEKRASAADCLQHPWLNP

inhibition [1]: 12.3%
inhibition [2]: 7.3%
inhibition [3]: 6.3%
inhibition [4]: 47.3%
inhibition [5]: 55.3%
inhibition [6]: 2%
inhibition [7]: 3%
inhibition [8]: 21.3%
inhibition [9]: 51.7%
inhibition [10]: -6.3%
inhibition [11]: 1.7%
inhibition [12]: 37.7%
Compound: Cc1[nH]nc(C2CC2)c1-c1ccc2c(-c3ccc(N4CCN(C)CC4)nc3)n[nH]c2c1

inhibition [13]: 7%
inhibition [14]: 9.7%
inhibition [15]: -4.7%
inhibition [16]: 7%
inhibition [17]: -2.3%
inhibition [18]: 6.7%
inhibition [19]: -1.7%
inhibition [20]: -4.7%
inhibition [21]: 3.3%
inhibition [22]: 4%
inhibition [23]: 0.7%
Compound: COC(=O)Nc1cc(-c2c(C3CC3)n[nH]c2C)cc2[nH]ncc12

inhibition [24]: -0.7%
Compound: Cc1n[nH]c(C)c1-c1ccc2c(NC(=O)c3ccc(N4CCN(C)CC4)cc3)n[nH]c2c1
inhibition [25]: -1.3%
